Experiments:
[1] = biological target: T1, PARG (Homo sapiens, UniProt Q86W56); assay: Inhibition of PARG enzymatic assay (TR-FRET enzymatic IC50 assay); type: biochemical; design: purchased Peak Proteins; details: hPARG 250 pM, biotinylated-PARylated PARP substrate 30 nM
Method: PARG enzyme was incubated with compound or vehicle (DMSO) and the biotinylated-PARylated PARP substrate in a microtiter plate. After adding detection antibody and streptavidin-europium, and then incubating, the plate was read for fluorescence intensity. The low control (DMSO) with low fluorescence intensity represents no inhibition of enzymatic reaction while the high control (no enzyme) with high fluorescence intensity represents full inhibition of enzymatic reaction.
• PARG • hPARG: 250 pM, His-tagged, Peak Proteins, 0.96 mg/mL (8.58 μM) • Substrate: 30 nM • Reaction time: 70 minutes • Substrate: hPARP1, His- and TEV-tagged, Peak Proteins, 14 μM • Detection Antibody: anti-His monoclonal antibody-ULight, Perkin Elmer catalog #TRF0105-M • Streptavidin-Europium: Perkin Elmer catalog #AD0062 • Assay buffer: 50 mM Tris-HCl pH 7.4, 50 mM KCl, 3 mM EDTA, 0.4 mM EGTA, 1 mM DTT, 0.01% Tween 20, 0.01% BSA • Temperature: 23° C. • Total volume: 20 μL
• 0% inhibition control: DMSO • 100% inhibition control: No enzyme
• 1. Transfer 5 μL of 3× final concentration of test compounds or DMSO to the appropriate wells of a microtiter plate. • 2. Centrifuge the plate at 1000 rpm for 1 minute. • 3. Transfer 5 μL of 3× final concentration of enzyme in assay buffer or assay buffer alone to the appropriate wells. • 4. Centrifuge the plate at 1000 rpm for 1 minute. • 5. Incubate the plate at room temperature for 1 hour. • 6. Transfer 5 μL of 3× substrate in assay buffer to all the test wells. • 7. Centrifuge the plate at 1000 rpm for 1 minute. • 8. Incubate the plate at room temperature for 10 minutes. • 9. Transfer 5 μL of 3× mixture of detection antibody and streptavidin-europium in assay buffer to all the test wells. • 10. Centrifuge the plate at 1000 rpm for 1 minute. • 11. Incubate the plate at room temperature for 1 hour. • 12. Read the plate on a plate reader (e.g., Infinite M1000).

[2] = biological target: T1, PARG; assay: Inhibition of PARG cellular assay (PAR foci in HeLa cells after MMS); type: cell-based; design: endogenous in cells; host or cells: HeLa; details: compound 1 h then MMS 1 h
Method: The ability of the compounds disclosed herein to inhibit PARG was determined as described below. Briefly, after treating HeLa cells with the compounds of the disclosure for 1 h, followed by treatment with DNA alkylating agent methylmethanesulfonate (MMS) for an additional 1 h, the cells were fixed in 3.7% formaldehyde. The cells were permeabilized in 0.5% Triton-X100, blocked in 5% goat serum, and incubated with mouse monoclonal antibody against poly (ADP) ribose (PAR) polymer overnight at 4° C. The cells were washed and incubated with an Alexafluor 488-linked secondary antibody together with a nuclear stain (Hoechst 33342) for an hour at room temperature. After washing, images of the cells were captured and analyzed on a high content imaging microscope and software. Two measurement of PAR chain were quantified with the mean intensity over background of the nuclear foci (fluorescent signal at 488 nm range 0.3-2.0 μm foci) quantified as PAR foci (PAR Foci IC50). The cells with a PAR foci signal >1.3 was considered as positive (PAR % positive IC50), and the percentage positive cells are quantified.

T1 sequence (Q86W56 whole entry): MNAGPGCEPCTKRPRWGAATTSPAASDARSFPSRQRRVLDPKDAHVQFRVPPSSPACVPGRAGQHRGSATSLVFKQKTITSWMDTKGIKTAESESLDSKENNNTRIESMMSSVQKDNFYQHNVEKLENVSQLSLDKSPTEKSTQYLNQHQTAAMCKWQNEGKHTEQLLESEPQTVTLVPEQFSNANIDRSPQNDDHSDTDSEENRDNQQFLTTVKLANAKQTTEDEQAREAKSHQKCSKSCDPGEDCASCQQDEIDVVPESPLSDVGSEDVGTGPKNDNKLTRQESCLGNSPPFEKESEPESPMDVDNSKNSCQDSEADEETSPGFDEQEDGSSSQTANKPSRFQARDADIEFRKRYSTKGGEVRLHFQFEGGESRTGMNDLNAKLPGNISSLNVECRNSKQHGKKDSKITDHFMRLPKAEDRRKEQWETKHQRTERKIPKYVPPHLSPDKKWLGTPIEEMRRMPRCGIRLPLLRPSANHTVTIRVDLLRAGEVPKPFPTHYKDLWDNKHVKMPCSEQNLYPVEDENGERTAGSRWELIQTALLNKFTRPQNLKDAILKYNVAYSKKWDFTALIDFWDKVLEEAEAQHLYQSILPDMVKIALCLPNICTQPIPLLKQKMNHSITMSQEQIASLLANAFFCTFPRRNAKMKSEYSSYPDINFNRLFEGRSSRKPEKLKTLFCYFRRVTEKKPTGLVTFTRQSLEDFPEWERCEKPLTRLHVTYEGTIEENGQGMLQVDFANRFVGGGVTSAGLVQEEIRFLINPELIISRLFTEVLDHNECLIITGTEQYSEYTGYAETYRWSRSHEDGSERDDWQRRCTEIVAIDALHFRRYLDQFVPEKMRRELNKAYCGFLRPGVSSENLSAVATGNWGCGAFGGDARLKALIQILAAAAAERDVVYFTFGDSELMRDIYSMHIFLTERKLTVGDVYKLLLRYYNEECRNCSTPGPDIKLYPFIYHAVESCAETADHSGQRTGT

IC50 [1] [nM] | IC50 [2] [nM] | SMILES
1000 to 10000 | 300 to 1000 | N#CC1(NS(=O)(=O)c2cc(N3CCC(F)(F)CC3)c3cnn(-c4nnc(C(F)F)s4)c3c2)CC1 [Example 105, 1-[({1-[5-(difluoromethyl)(1,3,4-thiadiazol-2-yl)]-4-(4,4-difluoropiperidyl)-1H-indazol-6-yl}sulfonyl)amino]cyclopropanecarbonitrile]
300 to 1000 | 300 to 1000 | Cn1cnc(-c2cc(S(=O)(=O)NC3(C#N)CC3)cc3c2cnn3-c2nnc(C(F)F)s2)c1 [Example 12, 1-[({1-[5-(difluoromethyl)(1,3,4-thiadiazol-2-yl)]-4-(1-methylimidazol-4-yl)-1H-indazol-6-yl}sulfonyl)amino]cyclopropanecarbonitrile]
100 to 300 | 300 to 1000 | CN1CCN(c2cc(S(=O)(=O)NC3(C#N)CC3)cc3c2cnn3-c2nnc(C(F)F)s2)CC1 [Example 102, 1-[({1-[5-(difluoromethyl)(1,3,4-thiadiazol-2-yl)]-4-(4-methylpiperazinyl)-1H-indazol-6-yl}sulfonyl)amino]cyclopropanecarbonitrile]
100 to 300 | 1000 to 10000 | N#CC1(NS(=O)(=O)c2cc(-c3ccncc3)c3cnn(-c4nnc(C(F)F)s4)c3c2)CC1 [Example 16, 1-[({1-[5-(difluoromethyl)(1,3,4-thiadiazol-2-yl)]-4-(4-pyridyl)-1H-indazol-6-yl}sulfonyl)amino]cyclopropanecarbonitrile]
300 to 1000 | 1000 to 10000 | COc1cc(-c2cc(S(=O)(=O)NC3(C(N)=O)CC3)cc3c2cnn3-c2nnc(C(F)F)s2)ncn1 [Example 19, 1-[({1-[5-(difluoromethyl)(1,3,4-thiadiazol-2-yl)]-4-(6-methoxypyrimidin-4-yl)-1H-indazol-6-yl}sulfonyl)amino]cyclopropanecarboxamide]
100 to 300 | – | CN(C)C(=O)N1CCCN(c2cc(S(=O)(=O)NC3(C#N)CC3)cc3c2cnn3-c2nnc(C(F)F)s2)CC1 [Example 78, [4-(1-[5-(difluoromethyl)(1,3,4-thiadiazol-2-yl)]-6-{[(cyanocyclopropyl)amino]-sulfonyl}(1H-indazol-4-yl))(1,4-diazaperhydroepinyl)]-N,N-dimethylcarboxamide]
100 to 300 | 1000 to 10000 | N#CC1(NS(=O)(=O)c2cc(-c3cnccn3)c3cnn(-c4nnc(C(F)F)s4)c3c2)CC1 [Example 18, 1-[({1-[5-(difluoromethyl)(1,3,4-thiadiazol-2-yl)]-4-pyrazin-2-yl-1H-indazol-6-yl}sulfonyl)amino]cyclopropanecarbonitrile]
1000 to 10000 | 1000 to 10000 | N#CC1(NS(=O)(=O)c2cc(N3CCCC3)c3cnn(-c4nnc(C(F)F)s4)c3c2)CC1 [Example 101, 1-[({1-[5-(difluoromethyl)(1,3,4-thiadiazol-2-yl)]-4-pyrrolidinyl-1H-indazol-6-yl}sulfonyl)amino]cyclopropanecarbonitrile]
100 to 300 | 1000 to 10000 | N#CC1(NS(=O)(=O)c2cc(-c3cccnn3)c3cnn(-c4nnc(C(F)F)s4)c3c2)CC1 [Example 11, 1-[({1-[5-(difluoromethyl)(1,3,4-thiadiazol-2-yl)]-4-pyridazin-3-yl-1H-indazol-6-yl}sulfonyl)amino]cyclopropanecarbonitrile]
300 to 1000 | 1000 to 10000 | N#CC1(NS(=O)(=O)c2cc(-c3c[nH]cn3)c3cnn(-c4nnc(C(F)F)s4)c3c2)CC1 [Example 9, 1-[({1-[5-(difluoromethyl)(1,3,4-thiadiazol-2-yl)]-4-imidazol-4-yl-1H-indazol-6-yl}sulfonyl)amino]cyclopropanecarbonitrile]
≤ 100 | – | N#CC1(NS(=O)(=O)c2cc(N3CCN4C(=O)OC[C@@H]4C3)c3cnn(-c4nnc(C(F)F)s4)c3c2)CC1 [Example 62, 1-[({4-((1S)-7-oxo-8-oxa-3,6-diazabicyclo[4.3.0]non-3-yl)-1-[5-(difluoromethyl) (1,3,4-thiadiazol-2-yl)]-1H-indazol-6-yl}sulfonyl)amino]cyclopropanecarbonitrile]
300 to 1000 | 1000 to 10000 | N#CC1(NS(=O)(=O)c2cc(-c3cccnc3)c3cnn(-c4nnc(C(F)F)s4)c3c2)CC1 [Example 17, 1-[({1-[5-(difluoromethyl)(1,3,4-thiadiazol-2-yl)]-4-(3-pyridyl)-1H-indazol-6-yl}sulfonyl)amino]cyclopropanecarbonitrile]
300 to 1000 | 1000 to 10000 | COc1nccc(-c2cc(S(=O)(=O)NC3(C(N)=O)CC3)cc3c2cnn3-c2nnc(C(F)F)s2)n1 [Example 20, 1-[({1-[5-(difluoromethyl)(1,3,4-thiadiazol-2-yl)]-4-(2-methoxypyrimidin-4-yl)-1H-indazol-6-yl}sulfonyl)amino]cyclopropanecarboxamide]
300 to 1000 | 300 to 1000 | N#CC1(NS(=O)(=O)c2cc(-c3cscn3)c3cnn(-c4nnc(C(F)F)s4)c3c2)CC1 [Example 13, 1-[({1-[5-(difluoromethyl)(1,3,4-thiadiazol-2-yl)]-4-(1,3-thiazol-4-yl)-1H-indazol-6-yl}sulfonyl)amino]cyclopropanecarbonitrile]
1000 to 10000 | – | N#CC1(NS(=O)(=O)c2cc(N3CCCOCC3)c3cnn(-c4nnc(C(F)F)s4)c3c2)CC1 [Example 42, 1-[({1-[5-(difluoromethyl)(1,3,4-thiadiazol-2-yl)]-4-(1,4-oxazaperhydroepin-4-yl)-1H-indazol-6-yl}sulfonyl)amino]cyclopropanecarbonitrile]
300 to 1000 | – | CN(C)C(=O)C1CN(c2cc(S(=O)(=O)NC3(C#N)CC3)cc3c2cnn3-c2nnc(C(F)F)s2)C1 [Example 55, [1-(1-[5-(difluoromethyl)(1,3,4-thiadiazol-2-yl)]-6-{[(cyanocyclopropyl)amino]sulfonyl}(1H-indazol-4-yl))azetidin-3-yl]-N,N-dimethylcarboxamide]
– | 300 to 1000 | COc1cc(-c2cc(S(=O)(=O)NC3(C#N)CC3)cc3c2cnn3-c2nnc(C(F)F)s2)ncn1 [Example 22, 1-[({1-[5-(difluoromethyl)(1,3,4-thiadiazol-2-yl)]-4-(6-methoxypyrimidin-4-yl)-1H-indazol-6-yl}sulfonyl)amino]cyclopropanecarbonitrile]
300 to 1000 | 1000 to 10000 | N#CC1(NS(=O)(=O)c2cc(N3CCC4(CCOCC4)CC3)c3cnn(-c4nnc(C(F)F)s4)c3c2)CC1 [Example 30, 1-[({1-[5-(difluoromethyl)(1,3,4-thiadiazol-2-yl)]-4-(9-oxa-3-azaspiro[5.5]undec-3-yl)-1H-indazol-6-yl}sulfonyl)amino]cyclopropanecarbonitrile]
100 to 300 | – | N#CC1(NS(=O)(=O)c2cc(N3CC4COCC(C3)N4)c3cnn(-c4nnc(C(F)F)s4)c3c2)CC1 [Example 70, 1-[({1-[5-(difluoromethyl)(1,3,4-thiadiazol-2-yl)]-4-(7-oxa-3,9-diazabicyclo-[3.3.1]non-3-yl)-1H-indazol-6-yl}sulfonyl)amino]cyclopropanecarbonitrile]
300 to 1000 | – | N#CC1(NS(=O)(=O)c2cc(N3CCCC4(COC4)C3)c3cnn(-c4nnc(C(F)F)s4)c3c2)CC1 [Example 65, 1-[({1-[5-(difluoromethyl)(1,3,4-thiadiazol-2-yl)]-4-(2-oxa-6-azaspiro[3.5]non-6-yl)-1H-indazol-6-yl}sulfonyl)amino]cyclopropanecarbonitrile]

— patent US20220389003A1, “4-SUBSTITUTED INDOLE AND INDAZOLE SULFONAMIDO DERIVATIVES AS PARG INHIBITORS” (IDEAYA BIOSCIENCES, INC., priority 2019, published 2022)
